Target: T1, chicken gizzard smooth muscle myosin subfragment-1 chemically crosslinked to cardiac or skeletal actin (Gallus gallus, UniProt P10587)
T1 construct: chicken gizzard smooth muscle myosin subfragment-1; from tissue; host or cells: chicken gizzard
Test: Smooth muscle myosin ATPase dose response assay (pyruvate kinase/horseradish peroxidase/pyruvate oxidase-coupled, amplex red fluorescence)
Assay type: biochemical
Settings: read-out: IC50 Arithmetic Mean
Summary of the method: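 Chicken gizzard myosin S1 crosslinked to cardiac or skeletal actin, titrated to a set hydrolysis rate; 0.15 mM ATP, 12 mM PIPES pH 7.00, 100 mM KCl, 2 mM MgCl2. Pyruvate kinase/pyruvate oxidase/HRP coupling with amplex red fluorescence; IC50 from 4-parameter fit.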

T1 sequence (P02607 2-151): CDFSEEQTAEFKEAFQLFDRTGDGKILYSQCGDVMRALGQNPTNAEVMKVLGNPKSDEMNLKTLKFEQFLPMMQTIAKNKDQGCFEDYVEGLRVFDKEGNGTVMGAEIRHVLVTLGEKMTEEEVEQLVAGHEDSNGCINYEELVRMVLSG
T1 sequence (P10587 84-789): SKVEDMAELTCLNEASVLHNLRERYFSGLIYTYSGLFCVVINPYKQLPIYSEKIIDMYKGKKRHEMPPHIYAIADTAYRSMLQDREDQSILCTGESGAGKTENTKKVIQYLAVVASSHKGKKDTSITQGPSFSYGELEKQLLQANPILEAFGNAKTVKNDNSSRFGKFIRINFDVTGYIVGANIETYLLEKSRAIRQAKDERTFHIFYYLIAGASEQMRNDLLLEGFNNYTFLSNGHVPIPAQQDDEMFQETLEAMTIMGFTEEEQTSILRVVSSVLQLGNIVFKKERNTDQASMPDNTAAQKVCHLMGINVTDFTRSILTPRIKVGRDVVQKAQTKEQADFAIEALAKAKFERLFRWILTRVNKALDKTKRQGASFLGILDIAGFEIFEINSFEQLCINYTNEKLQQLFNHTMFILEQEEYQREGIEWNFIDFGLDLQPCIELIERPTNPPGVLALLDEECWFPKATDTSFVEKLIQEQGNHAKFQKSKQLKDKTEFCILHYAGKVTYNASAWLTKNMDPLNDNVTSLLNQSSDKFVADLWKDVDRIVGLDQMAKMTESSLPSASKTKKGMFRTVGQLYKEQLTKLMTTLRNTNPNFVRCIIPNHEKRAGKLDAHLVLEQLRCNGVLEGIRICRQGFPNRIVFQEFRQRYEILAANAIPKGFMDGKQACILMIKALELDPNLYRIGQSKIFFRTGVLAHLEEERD

| Compound | IC50 |
| --- | --- |
| CC(C)C[C@H](CNC(=O)c1ccc(-c2ccccc2C#N)nc1NCCc1cccc(F)c1)NC(=O)CN [N-((1R)-1-{[(6-(2-cyanophenyl)-2-{[2-(3-fluorophenyl)ethyl]amino}(3-pyridyl))carbonylamino]methyl}-3-methylbutyl)-2-aminoacetamide] | 913 nM |
| CC(C)C[C@H](CNC(=O)c1ccc(-c2ccccc2C#N)nc1NCCc1cccc(F)c1)NC(=O)CO [N-((1R)-1-{[(6-(2-cyanophenyl)-2-{[2-(3-fluorophenyl)ethyl]amino}(3-pyridyl))carbonylamino]methyl}-3-methylbutyl)-2-hydroxyacetamide] | 1170 nM |
| N#Cc1ccccc1-c1ccc(C(=O)N[C@H](CN)C(N)=O)c(NCCc2cccc(F)c2)n1 [N-((1R)-2-amino-1-carbamoylethyl)(6-(2-cyanophenyl)-2-{[2-(3-fluorophenyl)ethyl]amino}(3-pyridyl))carboxamide] | 538 nM |
| N#Cc1ccccc1-c1ccc(C(=O)NC[C@@H](CN)NC(=O)CN)c(NCCc2cccc(F)c2)n1 [N-((1R)-2-amino-1-{[(6-(2-cyanophenyl)-2-{[2-(3-fluorophenyl)ethyl]amino}(3-pyridyl))carbonylamino]methyl}ethyl)-2-aminoacetamide] | 12600 nM |
| N#Cc1ccccc1-c1ccc(C(=O)NC[C@@H](CN)NC(=O)CO)c(NCCc2cccc(F)c2)n1 [N-((1R)-2-amino-1-{[(6-(2-cyanophenyl)-2-{[2-(3-fluorophenyl)ethyl]amino}(3-pyridyl))carbonylamino]methyl}ethyl)-2-hydroxyacetamide] | 10600 nM |
| N#Cc1ccccc1-c1ccc(C(=O)N[C@H](CCCN)C(N)=O)c(NCCc2cccc(F)c2)n1 [N-((1R)-4-amino-1-carbamoylbutyl)(6-(2-cyanophenyl)-2-{[2-(3-fluorophenyl)ethyl]amino}(3-pyridyl))carboxamide] | 7410 nM |
| N#Cc1ccccc1-c1ccc(C(=O)N[C@H](CCCCN)C(N)=O)c(NCCc2cccc(F)c2)n1 [N-((1R)-5-amino-1-carbamoylpentyl)(6-(2-cyanophenyl)-2-{[2-(3-fluorophenyl)ethyl]amino}(3-pyridyl))carboxamide] | 1280 nM |
| N#Cc1ccccc1-c1ccc(C(=O)N[C@@H](CO)C(N)=O)c(NCCc2cccc(F)c2)n1 [N-((1S)-1-carbamoyl-2-hydroxyethyl)(6-(2-cyanophenyl)-2-{[2-(3-fluorophenyl)ethyl]amino}(3-pyridyl))carboxamide] | 1020 nM |
| N#Cc1ccccc1-c1ccc(C(=O)NC[C@@H](CO)NC(=O)CN)c(NCCc2cccc(F)c2)n1 [N-((1S)-1-{[(6-(2-cyanophenyl)-2-{[2-(3-fluorophenyl)ethyl]amino}(3-pyridyl))carbonylamino]methyl}-2-hydroxyethyl)-2-aminoacetamide] | 249 nM |
| N#Cc1ccccc1-c1ccc(C(=O)N[C@@H](CN)C(N)=O)c(NCCc2cccc(F)c2)n1 [N-((1S)-2-amino-1-carbamoylethyl)(6-(2-cyanophenyl)-2-{[2-(3-fluorophenyl)ethyl]amino}(3-pyridyl))carboxamide] | 816 nM |
| N#Cc1ccccc1-c1ccc(C(=O)N[C@@H](CCCN)C(N)=O)c(NCCc2cccc(F)c2)n1 [N-((1S)-4-amino-1-carbamoylbutyl)(6-(2-cyanophenyl)-2-{[2-(3-fluorophenyl)ethyl]amino}(3-pyridyl))carboxamide] | 5400 nM |
| N#Cc1ccccc1-c1ccc(C(=O)N[C@@H](CCCCN)C(N)=O)c(NCCc2cccc(F)c2)n1 [N-((1S)-5-amino-1-carbamoylpentyl)(6-(2-cyanophenyl)-2-{[2-(3-fluorophenyl)ethyl]amino}(3-pyridyl))carboxamide] | 4420 nM |
| N#Cc1ccccc1-c1ccc(C(=O)NC[C@@H](N)C(N)=O)c(NCCc2cccc(F)c2)n1 [N-((2R)-2-amino-2-carbamoylethyl)(6-(2-cyanophenyl)-2-{[2-(3-fluorophenyl)ethyl]amino}(3-pyridyl))carboxamide] | 321 nM |
| Cn1cc(-c2nc(NCCc3cccc(F)c3)c(C(=O)NC[C@@H](N)CO)cc2F)cn1 [N-((2R)-2-amino-3-hydroxypropyl)(5-fluoro-2-{[2-(3-fluorophenyl)ethyl]amino}-6-(1-methylpyrazol-4-yl)(3-pyridyl))carboxamide] | 1260 nM |
| N[C@@H](CO)CNC(=O)c1cc(F)c(-c2cn[nH]c2)nc1NCCc1cccc(F)c1 [N-((2R)-2-amino-3-hydroxypropyl)(5-fluoro-2-{[2-(3-fluorophenyl)ethyl]amino}-6-pyrazol-4-yl(3-pyridyl))carboxamide] | 1820 nM |
| CC(C)C[C@@H](N)CNC(=O)c1ccc(-c2ccccc2C#N)nc1NCCc1cccc(F)c1 [N-((2R)-2-amino-4-methylpentyl)(6-(2-cyanophenyl)-2-{[2-(3-fluorophenyl)ethyl]amino}(3-pyridyl))carboxamide] | 1240 nM |
| C[C@@H](N)CNC(=O)c1cc(F)c(-c2cnn(C)c2)nc1NCCc1cccc(F)c1 [N-((2R)-2-aminopropyl)(5-fluoro-2-{[2-(3-fluorophenyl)ethyl]amino}-6-(1-methylpyrazol-4-yl)(3-pyridyl))carboxamide] | 398 nM |

| Compound | IC50 |
| --- | --- |
| C[C@@H](N)CNC(=O)c1cc(F)c(-c2cn[nH]c2)nc1NCCc1cccc(F)c1 [N-((2R)-2-aminopropyl)(5-fluoro-2-{[2-(3-fluorophenyl)ethyl]amino}-6-pyrazol-4-yl(3-pyridyl))carboxamide] | 443 nM |
| C[C@@H](N)CNC(=O)c1ccc(-c2ccccc2C#N)nc1NCCc1cccc(F)c1 [N-((2R)-2-aminopropyl)(6-(2-cyanophenyl)-2-{[2-(3-fluorophenyl)ethyl]amino}(3-pyridyl))carboxamide] | 399 nM |
| C[C@H](CNC(=O)c1cc(F)c(-c2cnn(C)c2)nc1NCCc1cccc(F)c1)C(N)=O [N-((2R)-2-carbamoylpropyl)(5-fluoro-2-{[2-(3-fluorophenyl)ethyl]amino}-6-(1-methylpyrazol-4-yl)(3-pyridyl))carboxamide] | 89 nM |
| CC[C@@H](CO)CNC(=O)c1cc(F)c(-c2cnn(C)c2)nc1NCCc1cccc(F)c1 [N-((2R)-2-ethyl-3-hydroxypropyl)(5-fluoro-2-{[2-(3-fluorophenyl)ethyl]amino}-6-(1-methylpyrazol-4-yl)(3-pyridyl))carboxamide] | 39 nM |
| CC[C@@H](CO)CNC(=O)c1cc(F)c(-c2cn[nH]c2)nc1NCCc1cccc(F)c1 [N-((2R)-2-ethyl-3-hydroxypropyl)(5-fluoro-2-{[2-(3-fluorophenyl)ethyl]amino}-6-pyrazol-4-yl(3-pyridyl))carboxamide] | 52 nM |
| CC(=O)[C@H](C)CNC(=O)c1cc(F)c(-c2cnn(C)c2)nc1NCCc1cccc(F)c1 [N-((2R)-2-methyl-3-oxobutyl)(5-fluoro-2-{[2-(3-fluorophenyl)ethyl]amino}-6-(1-methylpyrazol-4-yl)(3-pyridyl))carboxamide] | 109 nM |
| C[C@H](CNC(=O)c1cc(F)c(-c2cnn(C)c2)nc1NCCc1cccc(F)c1)C(C)(C)O [N-((2R)-3-hydroxy-2,3-dimethylbutyl)(5-fluoro-2-{[2-(3-fluorophenyl)ethyl]amino}-6-(1-methylpyrazol-4-yl)(3-pyridyl))carboxamide] | 1230 nM |
| CC(O)[C@H](C)CNC(=O)c1cc(F)c(-c2cnn(C)c2)nc1NCCc1cccc(F)c1 (stereo partly drawn) [N-((2R)-3-hydroxy-2-methylbutyl)(5-fluoro-2-{[2-(3-fluorophenyl)ethyl]amino}-6-(1-methylpyrazol-4-yl)(3-pyridyl))carboxamide] | 283 nM |
| C[C@@H](CO)CNC(=O)c1cc(F)c(-c2cnn(C)c2)nc1NCCc1cccc(F)c1 [N-((2R)-3-hydroxy-2-methylpropyl)(5-fluoro-2-{[2-(3-fluorophenyl)ethyl]amino}-6-(1-methylpyrazol-4-yl)(3-pyridyl))carboxamide] | 50 nM |
| C[C@@H](CO)CNC(=O)c1cc(F)c(-c2cn[nH]c2)nc1NCCc1cccc(F)c1 [N-((2R)-3-hydroxy-2-methylpropyl)(5-fluoro-2-{[2-(3-fluorophenyl)ethyl]amino}-6-pyrazol-4-yl(3-pyridyl))carboxamide] | 59 nM |
| C[C@@H](CO)CNC(=O)c1ccc(-c2ccccc2C#N)nc1NCCc1cccc(F)c1 [N-((2R)-3-hydroxy-2-methylpropyl)(6-(2-cyanophenyl)-2-{[2-(3-fluorophenyl)ethyl]amino}(3-pyridyl))carboxamide] | 61 nM |
| C[C@@H](CN=[N+]=[N-])CNC(=O)c1cc(F)c(-c2cnn(C)c2)nc1NCCc1cccc(F)c1 [N-((2R)-4-diazo-2-methyl-4-azabut-4-enyl)(5-fluoro-2-{[2-(3-fluorophenyl)ethyl]amino}-6-(1-methylpyrazol-4-yl)(3-pyridyl))carboxamide] | 118 nM |
| N#Cc1ccccc1-c1ccc(C(=O)NC[C@H](N)C(N)=O)c(NCCc2cccc(F)c2)n1 [N-((2S)-2-amino-2-carbamoylethyl)(6-(2-cyanophenyl)-2-{[2-(3-fluorophenyl)ethyl]amino}(3-pyridyl))carboxamide] | 669 nM |
| N#Cc1ccccc1-c1ccc(C(=O)NC[C@H](N)CO)c(NCCc2cccc(F)c2)n1 [N-((2S)-2-amino-3-hydroxypropyl)(6-(2-cyanophenyl)-2-{[2-(3-fluorophenyl)ethyl]amino}(3-pyridyl))carboxamide] | 1590 nM |
| C[C@H](N)CNC(=O)c1ccc(-c2ccccc2C#N)nc1NCCc1cccc(F)c1 [N-((2S)-2-aminopropyl)(6-(2-cyanophenyl)-2-{[2-(3-fluorophenyl)ethyl]amino}(3-pyridyl))carboxamide] | 515 nM |
| C[C@@H](CN)CNC(=O)c1cc(F)c(-c2cnn(C)c2)nc1NCCc1cccc(F)c1 [N-((2S)-3-amino-2-methylpropyl)(5-fluoro-2-{[2-(3-fluorophenyl)ethyl]amino}-6-(1-methylpyrazol-4-yl)(3-pyridyl))carboxamide] | 1050 nM |
| C[C@H](CO)CNC(=O)c1cc(F)c(-c2cnn(C)c2)nc1NCCc1cccc(F)c1 [N-((2S)-3-hydroxy-2-methylpropyl)(5-fluoro-2-{[2-(3-fluorophenyl)ethyl]amino}-6-(1-methylpyrazol-4-yl)(3-pyridyl))carboxamide] | 90 nM |

From US7932270B2 (Cytokinetics, Inc., priority 2006, dated 2011)
